What was measured:
PPARγ-RXRα heterodimer = molecular target: T1, PPARγ-RXRα heterodimer (Homo sapiens, UniProt P37231); test: PPARγ-RXRα heterodimer ligand activity, luciferase reporter in PPARγ:RXRα:4ERPP/CHO-K1 cells (Test Example 3); format: cell-based; conditions: 18-48 hours, concentration for 50% of the maximum fold induction
T1 construct: expressed in transfected cells; host or cells: CHO-K1
T1 sequence (P37231 1-477 isoform P37231-2): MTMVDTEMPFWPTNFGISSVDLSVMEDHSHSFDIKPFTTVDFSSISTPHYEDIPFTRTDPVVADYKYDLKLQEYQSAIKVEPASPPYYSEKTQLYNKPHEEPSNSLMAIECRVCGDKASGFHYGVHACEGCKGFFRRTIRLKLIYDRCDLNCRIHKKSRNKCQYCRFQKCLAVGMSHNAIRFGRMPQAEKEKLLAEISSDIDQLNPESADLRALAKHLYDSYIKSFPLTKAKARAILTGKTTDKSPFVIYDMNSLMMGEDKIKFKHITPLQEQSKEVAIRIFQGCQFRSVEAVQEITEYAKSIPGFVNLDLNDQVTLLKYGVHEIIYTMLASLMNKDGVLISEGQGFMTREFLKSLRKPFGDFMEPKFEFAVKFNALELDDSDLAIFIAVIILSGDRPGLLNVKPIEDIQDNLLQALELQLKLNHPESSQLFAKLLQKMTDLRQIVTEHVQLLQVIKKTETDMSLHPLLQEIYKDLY
T1 sequence (P19793 1-462 partner): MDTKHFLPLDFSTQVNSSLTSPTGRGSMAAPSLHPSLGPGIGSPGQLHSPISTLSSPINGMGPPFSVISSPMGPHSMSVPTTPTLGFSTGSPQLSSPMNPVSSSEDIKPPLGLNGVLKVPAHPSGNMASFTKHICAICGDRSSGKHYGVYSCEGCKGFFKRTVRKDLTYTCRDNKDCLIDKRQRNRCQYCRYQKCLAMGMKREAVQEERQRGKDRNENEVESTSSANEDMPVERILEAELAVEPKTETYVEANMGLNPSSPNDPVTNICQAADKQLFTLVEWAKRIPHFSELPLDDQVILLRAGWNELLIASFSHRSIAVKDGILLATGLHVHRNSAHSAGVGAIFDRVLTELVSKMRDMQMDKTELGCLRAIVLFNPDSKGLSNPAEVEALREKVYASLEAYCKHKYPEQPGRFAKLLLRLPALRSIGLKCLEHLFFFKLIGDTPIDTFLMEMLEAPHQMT
Description: A PPARγ: RXRα: 4ERPP/CHO-K1 cells obtained in Reference Example 8a described later were cultured in HAM F12 medium (produced by Life Technologies, Inc., USA) containing 10% Fetal bovine serum (produced by Life Technologies, Inc., USA) and then inoculated to a 96-well white plate (produced by Corning Costar Corporation, USA) at the density of 2×10^4 cells/well, and cultured in a CO2 gas incubator at 37° C. overnight.
After removing the medium from 96 well white plate, 80 μl of HAM F12 medium containing 0.1% fatty acid-free bovine serum albumin (BSA) and 20 μl of test compound were added, which was cultured in a CO2 gas incubator at 37° C. for 18-48 hours. After removing the medium, 40 μl of PIKKAGENE 7.5 (produced by Wako Pure Chemical Industries, Ltd.) diluted twice with HBSS (HANKS' BALANCED SALT SOLUTION)(produced by BIO WHITTAKER Inc., USA), was added. After stirring, the luciferase activity was determined using 1420 ARVO Multilabel Counter (produced by PerkinElmer Inc., USA).
A fold induction was calculated based on the luciferase activity of each test compound by taking the luciferase activity in the non-treatment group as 1. The values of the test compound concentration and the fold induction were analyzed using PRISM (produced by GraphPad Software Inc. USA) to calculate the EC50 values, the effective concentration of a test compound for 50% of the maximum fold induction.
After a CHO-K1 cell cultured in a 150 cm^2 cell culture flask (750 ml)(produced by Corning Costar Corporation, USA) containing HAM F12 medium (produced by Life Technologies, Inc., USA) supplemented with 10% Fetal Bovine Serum (produced by Life Technologies, Inc., USA) was scraped by treating with 0.5 g/L trypsin-0.2 g/L EDTA (ethylenediaminetetraacetic acid) (produced by Life Technologies, Inc., USA), the cell was washed with PBS (phosphate-buffered saline) (produced by Life Technologies, Inc., USA), centrifuged (1000 rpm, 5 minutes), and then suspended in PBS. Subsequently, a DNA was introduced into the cell under the condition shown below using GENE PULSER (produced by Bio-Rad Laboratories, USA).
Namely, to a cuvette having a 0.4 cm gap, added were 8×10^6 cells and 10 μg of plasmid pVgRXR2-hPPARγ obtained in Reference Example 7a and 10 μg of reporter plasmid pGL3-4ERPP-TK neo obtained in Reference Example 5a, which was subjected to electroporation at the voltage of 0.25 kV under the capacitance of 960 μF. Subsequently, the cell was transferred into a HAM F12 medium containing 10% Fetal Bovine Serum and cultured for 24 hours and then the cell was scraped again and centrifuged, and then suspended in HAM F12 medium containing 10% Fetal Bovine Serum supplemented with 500 μg/ml of GENETICIN (produced by Life Technologies, Inc., USA) and 250 μg/ml of ZEOCIN (produced by Invitrogen, USA). The obtained suspension was diluted to the density of 10^4 cells/ml and inoculated to a 96-well plate (produced by Corning Costar Corporation, USA), which was cultured in a CO2 gas incubator at 37° C., whereby obtaining a GENETICIN- and ZEOCIN-resistant transformant.
Subsequently, after the transformant cell line thus obtained was cultured in a 24-well plate (produced by Corning Costar Corporation, USA), selected was a cell line in which the luciferase was expressed and induced, i.e., PPARγ:RXRα:4ERPP/CHO-K1 cell by addition of 10 μM of pioglitazone hydrochloride.

PPARδ-RXRα heterodimer = molecular target: T2, PPARδ-RXRα heterodimer (Homo sapiens, UniProt Q03181); test: PPARδ-RXRα heterodimer ligand activity, luciferase reporter in COS-1 transformant (Test Example 4); format: cell-based; conditions: COS-1 transformant (hPPARδ, hRXRα, reporter), 36-48 hours, concentration for 50% of the maximum fold induction
T2 construct: expressed in transfected cells; host or cells: COS-1
T2 sequence (Q03181 1-441): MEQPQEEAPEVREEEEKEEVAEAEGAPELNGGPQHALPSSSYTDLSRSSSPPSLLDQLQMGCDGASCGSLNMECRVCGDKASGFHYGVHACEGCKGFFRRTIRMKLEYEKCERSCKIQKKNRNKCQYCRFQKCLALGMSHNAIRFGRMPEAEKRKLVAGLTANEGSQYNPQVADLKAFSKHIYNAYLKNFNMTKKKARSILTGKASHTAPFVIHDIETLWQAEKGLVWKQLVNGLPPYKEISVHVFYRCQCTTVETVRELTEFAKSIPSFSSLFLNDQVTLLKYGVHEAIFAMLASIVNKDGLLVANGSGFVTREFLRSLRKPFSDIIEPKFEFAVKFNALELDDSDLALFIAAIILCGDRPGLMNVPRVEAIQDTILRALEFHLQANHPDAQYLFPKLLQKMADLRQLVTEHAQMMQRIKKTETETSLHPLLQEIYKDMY
T2 sequence (P19793 1-462 partner): T1 sequence (P19793 1-462 partner)
Method in brief: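 COS-1 cells transiently co-transfected with human PPARδ, human RXRα, PPRE-luciferase reporter and pRL-tk, then exposed to compound 36-48 h at 37 °C in DMEM with 0.1% fatty acid-free BSA. Luciferase read as fold induction over untreated; EC50 at 50% of maximal fold induction.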

Row | SMILES | EC50 (PPARγ-RXRα heterodimer) [nM] | melting point [°C] | EC50 (PPARδ-RXRα heterodimer) [nM]
1 | CCCc1nn(-c2ccc(C(F)(F)F)cn2)cc1CCCCn1cc(CCC(=O)O)c(-c2ccc(F)cc2)n1 [Example 77, 3-[3-(4-fluorophenyl)-1-(4-{3-propyl-1-[5-(trifluoromethyl)-2-pyridinyl]-1H-pyrazol-4-yl}butyl)-1H-pyrazol-4-yl]propanoic acid] | 21 | 119 to 121 | –
2 | CCOc1nn(-c2ccc(C(F)(F)F)cn2)cc1CCCOc1cc(CC(=O)O)cc(OC)c1 [Example 168, [5-(3-{3-ethoxy-1-[5-(trifluoromethyl)-2-pyridyl]-1H-pyrazol-4-yl}propoxy)-3-methoxyphenyl]acetic acid] | – | 125 to 126 | 1.6
3 | CCCc1nn(-c2ccc(C(F)(F)F)cn2)cc1CCCOc1cc(CC(=O)O)cc(OC)c1 [Example 169, [3-methoxy-5-(3-{3-propyl-1-[5-(trifluoromethyl)-2-pyridyl]-1H-pyrazol-4-yl}propoxy)phenyl]acetic acid] | – | 139 to 140 | 5.7
4 | CCOc1nn(-c2ccc(C(F)(F)F)cc2)cc1CCCOc1ccccc1CC(=O)O [Example 182, [2-(3-{3-ethoxy-1-[4-(trifluoromethyl)phenyl]-1H-pyrazol-4-yl}propoxy)phenyl]acetic acid] | – | 114 to 115 | 5.6
5 | CCOc1nn(-c2ccc(C(F)(F)F)cn2)cc1CCCOc1cccc(CC(=O)O)c1F [Example 186, [3-(3-{3-ethoxy-1-[5-(trifluoromethyl)-2-pyridyl]-1H-pyrazol-4-yl}propoxy)-2-fluorophenyl]acetic acid] | – | 120 to 121 | 1.9
6 | COc1cccc(CC(=O)O)c1OCCCc1cn(-c2ccc(C(F)(F)F)cn2)nc1-c1ccccc1 [Example 196] | 42 | 134 to 135 | –
7 | CCCCc1nn(-c2ccc(C(F)(F)F)cn2)cc1CCCOc1ccccc1CC(=O)O [Example 198, [2-(3-{3-butyl-1-[5-(trifluoromethyl)-2-pyridyl]-1H-pyrazol-4-yl}propoxy)phenyl]acetic acid] | 30 | 106 to 107 | –
8 | CCOc1ccc(CC(=O)O)cc1OCCCc1cn(-c2ccc(C(F)(F)F)cn2)nc1C(C)C [Example 200, [4-ethoxy-3-(3-{3-isopropyl-1-[5-(trifluoromethyl)-2-pyridyl]-1H-pyrazol-4-yl}propoxy)phenyl]acetic acid] | – | 116 to 117 | 5.9
9 | CCCc1nn(-c2ccc(C(F)(F)F)cn2)cc1CCCOc1cc(CC(=O)O)ccc1OCC [Example 204, [4-ethoxy-3-(3-{3-propyl-1-[5-(trifluoromethyl)-2-pyridyl]-1H-pyrazol-4-yl}propoxy)phenyl]acetic acid] | – | 124 to 125 | 4.6
10 | O=C(O)Cc1cccc(F)c1OCCCc1cn(-c2ccc(C(F)(F)F)cn2)nc1C1CCCCC1 [Example 210, [2-(3-{3-cyclohexyl-1-[5-(trifluoromethyl)-2-pyridyl]-1H-pyrazol-4-yl}propoxy)-3-fluorophenyl]acetic acid] | 16 | 149 to 150 | –
11 | CCCc1cn(CC(=O)O)nc1OCCCc1cn(-c2ccc(C(F)(F)F)cn2)nc1OCC [Example 255, [3-(3-{3-ethoxy-1-[5-(trifluoromethyl)-2-pyridyl]-1H-pyrazol-4-yl}propoxy)-4-propyl-1H-pyrazol-1-yl]acetic acid] | – | 134 to 135 | 9.5
12 | CCCc1nn(-c2ccc(C(F)(F)F)cn2)cc1CCCOc1cccc(CC(=O)O)c1F [Example 258, [2-fluoro-3-(3-{3-propyl-1-[5-(trifluoromethyl)-2-pyridyl]-1H-pyrazol-4-yl}propoxy)phenyl]acetic acid] | – | 109 to 110 | 5.5
13 | COc1cccc(CC(=O)O)c1OCCCc1cn(-c2ccc([N+](=O)[O-])cn2)nc1C(C)C [Example 270, (3-methoxy-2-{3-[3-isopropyl-1-(5-nitro-2-pyridyl)-1H-pyrazol-4-yl]propoxy}phenyl)acetic acid] | 99 | 161 to 162 | –
14 | COc1cccc(CC(=O)O)c1OCCCc1cn(-c2ccc(C#N)cn2)nc1C(C)C [Example 271, (2-{3-[1-(5-cyano-2-pyridyl)-3-isopropyl-1H-pyrazol-4-yl]propoxy}-3-methoxyphenyl)acetic acid] | 30 | – | –
15 | COc1cc(CC(=O)O)ccc1OCCCc1cn(-c2ccc(C(F)(F)F)cn2)nc1C(C)C [Example 278, [3-methoxy-4-(3-{1-[5-(trifluoromethyl)-2-pyridyl]-3-isopropyl-1H-pyrazol-4-yl}propoxy)phenyl]acetic acid] | – | 134 to 135 | 6
16 | COc1cc(CCC(=O)O)ccc1OCCCc1cn(-c2ccc(C(F)(F)F)cn2)nc1C(C)C [Example 279, 3-[3-methoxy-4-(3-{1-[5-(trifluoromethyl)-2-pyridyl]-3-isopropyl-1H-pyrazol-4-yl}propoxy)phenyl]propanoic acid] | – | 118 to 119 | 5.1

Reference: patent publication US20060148858A1, “1, 2-Azole derivatives with hypoglycemic and hypolipidemic activity” (priority 2002, published 2006)
